According to patent US20250129018A1, “PLEUROMUTILIN DERIVATIVES CONTAINING CYCLOALKYL GROUP AND PREPARATION METHODS AND APPLICATIONS THEREOF” (priority 2023, published 2025):
In brackets after ≈: the same amount, converted by molar mass. Like-named read-outs stand apart in the source and are kept apart here.

What was measured:
S. dysgalactiae-1 = test: MIC, two-fold serial dilution method; format: cell-based, S. dysgalactiae equisimilis; conditions: for MIC: Streptococcus dysgalactiae, read-out: minimum inhibitory concentration
Protocol: (§1) The pleuromutilin derivatives 1-4 prepared from Example 9 of the present disclosure were determined for their effect on Methicillin-resistant Staphylococcus aureus, Methicillin-resistant Staphylococcus epidermidis, standard strains of Staphylococcus aureus (S. aureus-29213 and S. aureus-25923), clinical strains 1-48 of S. aureus, Escherichia coli, S. agalactiae and S. dysgalactiae equisimilis (S. dysgalactiae-1, S. dysgalactiae-2, S. dysgalactiae-3) and minimum inhibitory concentration (MIC) using a two-fold serial dilution method, and the results were shown in Table 1, Table 2 and Table 3. The standard strains are commercially available from ATCC, and the clinical strains are preserved by Lanzhou Institute of Husbandry and Pharmaceutical Science of Chinese Academy of Agricultural Sciences (Lanzhou, Gansu, China).

S. dysgalactiae-3 = test: MIC, two-fold serial dilution method; format: cell-based, S. dysgalactiae equisimilis; conditions: for MIC: Streptococcus dysgalactiae, read-out: minimum inhibitory concentration
Protocol: as §1

S. dysgalactiae-2 = test: MIC, two-fold serial dilution method; format: cell-based, S. dysgalactiae equisimilis; conditions: for MIC: Streptococcus dysgalactiae, read-out: minimum inhibitory concentration
Protocol: as §1

S. aureus-37 = test: MIC, clinical strain; format: cell-based, Staphylococcus aureus
Protocol: as §1

S. aureus-44 = test: MIC, clinical strain; format: cell-based, Staphylococcus aureus
Protocol: as §1

S. aureus-46 = test: MIC, clinical strain; format: cell-based, Staphylococcus aureus
Protocol: as §1

S. aureus-1 = test: MIC, clinical strain; format: cell-based, Staphylococcus aureus
Protocol: as §1

S. aureus-40 = test: MIC, clinical strain; format: cell-based, Staphylococcus aureus
Protocol: as §1

S. aureus-25 = test: MIC, clinical strain; format: cell-based, Staphylococcus aureus
Protocol: as §1

S. aureus-42 = test: MIC, clinical strain; format: cell-based, Staphylococcus aureus
Protocol: as §1

S. aureus-36 = test: MIC, clinical strain; format: cell-based, Staphylococcus aureus
Protocol: as §1

S. aureus-48 = test: MIC, clinical strain; format: cell-based, Staphylococcus aureus
Protocol: as §1

S. aureus-20 = test: MIC, clinical strain; format: cell-based, Staphylococcus aureus
Protocol: as §1

S. aureus-4 = test: MIC, clinical strain; format: cell-based, Staphylococcus aureus
Protocol: as §1

S. aureus-21 = test: MIC, clinical strain; format: cell-based, Staphylococcus aureus
Protocol: as §1

S. aureus-19 = test: MIC, clinical strain; format: cell-based, Staphylococcus aureus
Protocol: as §1

S. aureus-29 = test: MIC, clinical strain; format: cell-based, Staphylococcus aureus
Protocol: as §1

S. aureus-33 = test: MIC, clinical strain; format: cell-based, Staphylococcus aureus
Protocol: as §1

S. aureus-30 = test: MIC, clinical strain; format: cell-based, Staphylococcus aureus
Protocol: as §1

S. aureus-11 = test: MIC, clinical strain; format: cell-based, Staphylococcus aureus
Protocol: as §1

S. aureus-31 = test: MIC, clinical strain; format: cell-based, Staphylococcus aureus
Protocol: as §1

S. aureus-14 = test: MIC, clinical strain; format: cell-based, Staphylococcus aureus
Protocol: as §1

S. aureus-22 = test: MIC, clinical strain; format: cell-based, Staphylococcus aureus
Protocol: as §1

S. aureus-7 = test: MIC, clinical strain; format: cell-based, Staphylococcus aureus
Protocol: as §1

S. aureus-47 = test: MIC, clinical strain; format: cell-based, Staphylococcus aureus
Protocol: as §1

S. aureus-32 = test: MIC, clinical strain; format: cell-based, Staphylococcus aureus
Protocol: as §1

S. aureus-15 = test: MIC, clinical strain; format: cell-based, Staphylococcus aureus
Protocol: as §1

S. aureus-39 = test: MIC, clinical strain; format: cell-based, Staphylococcus aureus
Protocol: as §1

S. aureus-35 = test: MIC, clinical strain; format: cell-based, Staphylococcus aureus
Protocol: as §1

S. aureus-18 = test: MIC, clinical strain; format: cell-based, Staphylococcus aureus
Protocol: as §1

S. aureus-3 = test: MIC, clinical strain; format: cell-based, Staphylococcus aureus
Protocol: as §1

S. aureus-45 = test: MIC, clinical strain; format: cell-based, Staphylococcus aureus
Protocol: as §1

S. aureus-16 = test: MIC, clinical strain; format: cell-based, Staphylococcus aureus
Protocol: as §1

S. aureus-27 = test: MIC, clinical strain; format: cell-based, Staphylococcus aureus
Protocol: as §1

S. aureus-6 = test: MIC, clinical strain; format: cell-based, Staphylococcus aureus
Protocol: as §1

S. aureus-26 = test: MIC, clinical strain; format: cell-based, Staphylococcus aureus
Protocol: as §1

S. aureus-28 = test: MIC, clinical strain; format: cell-based, Staphylococcus aureus
Protocol: as §1

S. aureus-8 = test: MIC, clinical strain; format: cell-based, Staphylococcus aureus
Protocol: as §1

S. aureus-24 = test: MIC, clinical strain; format: cell-based, Staphylococcus aureus
Protocol: as §1

S. aureus-38 = test: MIC, clinical strain; format: cell-based, Staphylococcus aureus
Protocol: as §1

S. aureus-10 = test: MIC, clinical strain; format: cell-based, Staphylococcus aureus
Protocol: as §1

S. aureus-13 = test: MIC, clinical strain; format: cell-based, Staphylococcus aureus
Protocol: as §1

C=CC1(C)CC(OC(=O)CSC(C)(C)CNC(=O)C2CCC2)C2(C)C(C)CCC3(CCC(=O)C32)C(C)C1O (stereo not drawn) [derivative 2]
minimum inhibitory concentration (S. dysgalactiae-1; S. dysgalactiae-1): 0.031 µg/mL (≈ 0.0566 µM) | minimum inhibitory concentration (S. dysgalactiae-3; S. dysgalactiae-3): 0.031 µg/mL (≈ 0.0566 µM) | minimum inhibitory concentration (S. dysgalactiae-2; S. dysgalactiae-2): 0.031 µg/mL (≈ 0.0566 µM) | in vitro minimum inhibitory concentration (S. aureus-37): 0.063 | in vitro minimum inhibitory concentration (S. aureus-44): 0.031 | in vitro minimum inhibitory concentration (S. aureus-46): 0.063 | in vitro minimum inhibitory concentration (S. aureus-1; in µg/mL): 0.125 | in vitro minimum inhibitory concentration (S. aureus-40): 0.016 | in vitro minimum inhibitory concentration (S. aureus-25): 0.063 | in vitro minimum inhibitory concentration (S. aureus-42): 0.063 | in vitro minimum inhibitory concentration (S. aureus-36): 0.016 | in vitro minimum inhibitory concentration (S. aureus-48): 0.063 | in vitro minimum inhibitory concentration (S. aureus-20; in µg/mL): 0.063 | in vitro minimum inhibitory concentration (S. aureus-4): 0.063 | in vitro minimum inhibitory concentration (S. aureus-21; in µg/mL): 0.063 | in vitro minimum inhibitory concentration (S. aureus-19): 0.125 | in vitro minimum inhibitory concentration (S. aureus-29): 0.031 | in vitro minimum inhibitory concentration (S. aureus-33): 0.031 | in vitro minimum inhibitory concentration (S. aureus-30): 0.031 | in vitro minimum inhibitory concentration (S. aureus-11): 0.063 | in vitro minimum inhibitory concentration (S. aureus-31): 0.031 | in vitro minimum inhibitory concentration (S. aureus-14): 0.063 | in vitro minimum inhibitory concentration (S. aureus-22; in µg/mL): 0.063 | in vitro minimum inhibitory concentration (S. aureus-7): 0.063 | in vitro minimum inhibitory concentration (S. aureus-47): 0.063 | in vitro minimum inhibitory concentration (S. aureus-32): 0.063 | in vitro minimum inhibitory concentration (S. aureus-15; in µg/mL): 0.031 | in vitro minimum inhibitory concentration (S. aureus-39): 0.016 | in vitro minimum inhibitory concentration (S. aureus-35): 0.125 | in vitro minimum inhibitory concentration (S. aureus-18): 0.031 | in vitro minimum inhibitory concentration (S. aureus-3): 0.031 | in vitro minimum inhibitory concentration (S. aureus-45): 0.125 | in vitro minimum inhibitory concentration (S. aureus-16): 0.031 | in vitro minimum inhibitory concentration (S. aureus-27): 0.031 | in vitro minimum inhibitory concentration (S. aureus-6): 0.031 | in vitro minimum inhibitory concentration (S. aureus-26): 0.063 | in vitro minimum inhibitory concentration (S. aureus-28): 0.063 | in vitro minimum inhibitory concentration (S. aureus-8): 0.063 | in vitro minimum inhibitory concentration (S. aureus-24): 0.063 | in vitro minimum inhibitory concentration (S. aureus-38): 0.016 | in vitro minimum inhibitory concentration (S. aureus-10): 0.063 | in vitro minimum inhibitory concentration (S. aureus-13; in µg/mL): 0.031

C=C[C@]1(C)C[C@@H](OC(=O)CSC(C)(C)CNC(=O)[C@H](N)C(C)C)[C@]2(C)[C@H](C)CC[C@]3(CCC(=O)[C@H]32)[C@@H](C)[C@@H]1O [Valnemulin]
MIC (S. dysgalactiae-1): 0.031 µg/mL (≈ 0.0549 µM) | MIC (S. dysgalactiae-3): 0.031 µg/mL (≈ 0.0549 µM) | MIC (S. dysgalactiae-2): 0.031 µg/mL (≈ 0.0549 µM) | in vitro minimum inhibitory concentration (S. aureus-37): 0.063 | in vitro minimum inhibitory concentration (S. aureus-44): 0.063 | in vitro minimum inhibitory concentration (S. aureus-46): 0.063 | in vitro minimum inhibitory concentration (S. aureus-1): 0.25 µg/mL | in vitro minimum inhibitory concentration (S. aureus-40): 0.063 | in vitro minimum inhibitory concentration (S. aureus-25): 0.063 | in vitro minimum inhibitory concentration (S. aureus-42): 0.063 | in vitro minimum inhibitory concentration (S. aureus-36): 0.063 | in vitro minimum inhibitory concentration (S. aureus-48): 0.125 | in vitro minimum inhibitory concentration (S. aureus-20; in µg/mL): 0.125 | in vitro minimum inhibitory concentration (S. aureus-4): 0.125 | in vitro minimum inhibitory concentration (S. aureus-21; in µg/mL): 0.125 | in vitro minimum inhibitory concentration (S. aureus-19): 0.063 | in vitro minimum inhibitory concentration (S. aureus-29): 0.063 | in vitro minimum inhibitory concentration (S. aureus-33): 0.063 | in vitro minimum inhibitory concentration (S. aureus-30): 0.063 | in vitro minimum inhibitory concentration (S. aureus-11): 0.063 | in vitro minimum inhibitory concentration (S. aureus-31): 0.063 | in vitro minimum inhibitory concentration (S. aureus-14): 0.125 | in vitro minimum inhibitory concentration (S. aureus-22): 0.25 µg/mL | in vitro minimum inhibitory concentration (S. aureus-7): 0.063 | in vitro minimum inhibitory concentration (S. aureus-47): 0.063 | in vitro minimum inhibitory concentration (S. aureus-32): 0.063 | in vitro minimum inhibitory concentration (S. aureus-15; in µg/mL): 0.063 | in vitro minimum inhibitory concentration (S. aureus-39): 0.125 | in vitro minimum inhibitory concentration (S. aureus-35): 0.063 | in vitro minimum inhibitory concentration (S. aureus-18): 0.063 | in vitro minimum inhibitory concentration (S. aureus-3): 0.063 | in vitro minimum inhibitory concentration (S. aureus-45): 0.25 | in vitro minimum inhibitory concentration (S. aureus-16): 0.063 | in vitro minimum inhibitory concentration (S. aureus-27): 0.063 | in vitro minimum inhibitory concentration (S. aureus-6): 0.063 | in vitro minimum inhibitory concentration (S. aureus-26): 0.063 | in vitro minimum inhibitory concentration (S. aureus-28): 0.063 | in vitro minimum inhibitory concentration (S. aureus-8): 0.063 | in vitro minimum inhibitory concentration (S. aureus-24): 0.063 | in vitro minimum inhibitory concentration (S. aureus-38): 0.063 | in vitro minimum inhibitory concentration (S. aureus-10): 0.063 | in vitro minimum inhibitory concentration (S. aureus-13; in µg/mL): 0.063

C=C[C@]1(C)C[C@@H](OC(=O)CSCCN(CC)CC)[C@]2(C)[C@H](C)CC[C@]3(CCC(=O)[C@H]32)[C@@H](C)[C@@H]1O [Tiamulin]
MIC (S. dysgalactiae-1; S. dysgalactiae-1): 0.25 µg/mL (≈ 0.506 µM) | MIC (S. dysgalactiae-3; S. dysgalactiae-3): 0.25 µg/mL (≈ 0.506 µM) | MIC (S. dysgalactiae-2; S. dysgalactiae-2): 0.25 µg/mL (≈ 0.506 µM) | in vitro minimum inhibitory concentration (S. aureus-37): 0.5 | in vitro minimum inhibitory concentration (S. aureus-44): 0.5 | in vitro minimum inhibitory concentration (S. aureus-46): 1 | in vitro minimum inhibitory concentration (S. aureus-1): 0.5 µg/mL | in vitro minimum inhibitory concentration (S. aureus-40): 1 | in vitro minimum inhibitory concentration (S. aureus-25): 0.5 | in vitro minimum inhibitory concentration (S. aureus-42): 0.5 | in vitro minimum inhibitory concentration (S. aureus-36): 0.25 | in vitro minimum inhibitory concentration (S. aureus-48): 0.5 | in vitro minimum inhibitory concentration (S. aureus-20): 0.5 µg/mL | in vitro minimum inhibitory concentration (S. aureus-4): 0.5 | in vitro minimum inhibitory concentration (S. aureus-21): 0.5 µg/mL | in vitro minimum inhibitory concentration (S. aureus-19): 0.5 | in vitro minimum inhibitory concentration (S. aureus-29): 1 | in vitro minimum inhibitory concentration (S. aureus-33): 1 | in vitro minimum inhibitory concentration (S. aureus-30): 0.5 | in vitro minimum inhibitory concentration (S. aureus-11): 0.5 | in vitro minimum inhibitory concentration (S. aureus-31): 0.5 | in vitro minimum inhibitory concentration (S. aureus-14): 0.5 | in vitro minimum inhibitory concentration (S. aureus-22): 0.5 µg/mL | in vitro minimum inhibitory concentration (S. aureus-7): 1 | in vitro minimum inhibitory concentration (S. aureus-47): 0.5 | in vitro minimum inhibitory concentration (S. aureus-32): 1 | in vitro minimum inhibitory concentration (S. aureus-15): 0.5 µg/mL | in vitro minimum inhibitory concentration (S. aureus-39): 0.25 | in vitro minimum inhibitory concentration (S. aureus-35): 0.5 | in vitro minimum inhibitory concentration (S. aureus-18): 0.125 | in vitro minimum inhibitory concentration (S. aureus-3): 0.5 | in vitro minimum inhibitory concentration (S. aureus-45): 1 | in vitro minimum inhibitory concentration (S. aureus-16): 0.5 | in vitro minimum inhibitory concentration (S. aureus-27): 0.5 | in vitro minimum inhibitory concentration (S. aureus-6): 0.25 | in vitro minimum inhibitory concentration (S. aureus-26): 0.5 | in vitro minimum inhibitory concentration (S. aureus-28): 1 | in vitro minimum inhibitory concentration (S. aureus-8): 0.5 | in vitro minimum inhibitory concentration (S. aureus-24): 0.25 | in vitro minimum inhibitory concentration (S. aureus-38): 0.5 | in vitro minimum inhibitory concentration (S. aureus-10): 0.5 | in vitro minimum inhibitory concentration (S. aureus-13): 0.25 µg/mL
